Data as given in patent publication US20250025439A1, “DERIVATIVES OF NIFUROXAZIDE FOR USE IN THE TREATMENT OF MITOCHONDRIAL DISORDERS AND NEURODEGENERATIVE DISEASES” (priority 2021, published 2025).

What was measured:
Assay in all cases: Affinity chromatography with NFX-beads and mass spectrometry
Type in all cases: binding
Details in all cases: spectral counts, NFX coupled beads vs beads alone, human fibroblast extracts
[1] = biological target: T1, Calcium/calmodulin-dependent protein kinase type II subunit delta (CAMK2D) (Homo sapiens, UniProt Q13557)
T1 construct: Protein extracts from human fibroblasts were incubated with magnetic beads; endogenous in cells; host or cells: human fibroblast lysate

[2] = biological target: T2, E3 ubiquitin-protein ligase DTX3L (Homo sapiens, UniProt Q8TDB6)
T2 construct: Protein extracts from human fibroblasts were incubated with magnetic beads; endogenous in cells; host or cells: human fibroblast lysate

Vigilin (HDLBP) = biological target: T3, Vigilin (HDLBP) (Homo sapiens, UniProt Q00341)
T3 construct: Protein extracts from human fibroblasts were incubated with magnetic beads; endogenous in cells; host or cells: human fibroblast lysate
T3 sequence (Q00341 1-1268): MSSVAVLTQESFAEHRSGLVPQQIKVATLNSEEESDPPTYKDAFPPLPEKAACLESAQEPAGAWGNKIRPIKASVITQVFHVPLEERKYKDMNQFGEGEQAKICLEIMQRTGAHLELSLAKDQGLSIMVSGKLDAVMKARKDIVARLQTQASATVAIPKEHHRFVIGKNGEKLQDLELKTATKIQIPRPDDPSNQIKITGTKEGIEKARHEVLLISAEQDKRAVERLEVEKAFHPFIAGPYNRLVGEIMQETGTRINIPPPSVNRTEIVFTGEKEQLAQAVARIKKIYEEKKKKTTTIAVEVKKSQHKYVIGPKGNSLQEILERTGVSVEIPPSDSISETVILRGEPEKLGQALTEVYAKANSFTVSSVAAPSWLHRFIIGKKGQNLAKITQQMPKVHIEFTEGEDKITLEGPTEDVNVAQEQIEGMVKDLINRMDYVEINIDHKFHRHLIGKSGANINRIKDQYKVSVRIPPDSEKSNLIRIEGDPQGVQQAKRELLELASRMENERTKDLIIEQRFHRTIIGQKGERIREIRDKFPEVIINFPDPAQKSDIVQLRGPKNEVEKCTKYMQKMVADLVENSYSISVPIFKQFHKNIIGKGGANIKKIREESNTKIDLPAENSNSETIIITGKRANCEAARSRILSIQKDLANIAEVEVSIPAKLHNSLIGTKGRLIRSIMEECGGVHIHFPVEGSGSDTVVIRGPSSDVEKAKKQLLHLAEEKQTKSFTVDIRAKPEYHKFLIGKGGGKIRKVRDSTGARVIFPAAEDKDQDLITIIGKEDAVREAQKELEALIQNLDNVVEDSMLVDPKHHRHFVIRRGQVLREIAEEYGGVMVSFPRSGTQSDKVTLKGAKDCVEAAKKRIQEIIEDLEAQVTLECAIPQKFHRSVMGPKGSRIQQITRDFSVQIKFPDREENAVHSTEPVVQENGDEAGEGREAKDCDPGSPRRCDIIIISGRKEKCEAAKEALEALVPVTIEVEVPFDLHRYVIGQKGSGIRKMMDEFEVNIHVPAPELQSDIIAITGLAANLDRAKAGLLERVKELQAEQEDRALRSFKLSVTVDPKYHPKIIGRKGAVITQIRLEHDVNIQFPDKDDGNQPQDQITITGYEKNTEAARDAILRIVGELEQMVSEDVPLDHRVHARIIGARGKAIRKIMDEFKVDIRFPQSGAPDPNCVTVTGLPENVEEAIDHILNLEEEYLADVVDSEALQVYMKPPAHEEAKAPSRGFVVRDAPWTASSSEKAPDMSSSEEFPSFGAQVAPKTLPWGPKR

T1 sequence (Q13557 whole entry): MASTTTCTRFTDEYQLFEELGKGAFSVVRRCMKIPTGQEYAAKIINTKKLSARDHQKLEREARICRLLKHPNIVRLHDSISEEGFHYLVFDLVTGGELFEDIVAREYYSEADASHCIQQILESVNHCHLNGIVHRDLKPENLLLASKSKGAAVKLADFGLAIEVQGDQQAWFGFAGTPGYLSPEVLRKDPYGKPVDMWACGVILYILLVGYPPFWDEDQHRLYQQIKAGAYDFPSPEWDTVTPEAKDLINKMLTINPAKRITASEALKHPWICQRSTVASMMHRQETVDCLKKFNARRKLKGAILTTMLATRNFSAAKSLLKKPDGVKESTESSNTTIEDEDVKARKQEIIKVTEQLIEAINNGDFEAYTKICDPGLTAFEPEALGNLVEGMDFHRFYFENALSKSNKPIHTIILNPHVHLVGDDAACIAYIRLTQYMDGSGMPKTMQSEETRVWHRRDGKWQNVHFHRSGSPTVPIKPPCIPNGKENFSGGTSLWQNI

Q: `O=C(N/N=C/c1ccc([N+](=O)[O-])o1)c1ccc(O)cc1` [NFX, (E)-4-hydroxy-N′-((5-nitrofuran-2-yl)methylene)benzohydrazide] was tested. Which Fold change [1] did it give?
A: Its Fold change is 803.33.

Q: What about the Fold change [2] of the same molecule?
A: Its Fold change is 386.67.

Q: What about the Fold change (Vigilin (HDLBP)) of the same molecule?
A: The Fold change was 77.14.
